Data as given in article PMC12175894 (Science Advances, 2025).
Changes are numbered by the printed parent chain. Read-outs that look alike come from different tables or passages of the source.

Tests used:
5-HT1AR wt = molecular target: T1, 5-HT1AR wt (Homo sapiens, UniProt P08908); assay: Radioligand competition, displacement of [3H]WAY100635; format: binding
T1 construct: host or cells: HEK293T, transient; membranes
T1 sequence (P08908 1-422): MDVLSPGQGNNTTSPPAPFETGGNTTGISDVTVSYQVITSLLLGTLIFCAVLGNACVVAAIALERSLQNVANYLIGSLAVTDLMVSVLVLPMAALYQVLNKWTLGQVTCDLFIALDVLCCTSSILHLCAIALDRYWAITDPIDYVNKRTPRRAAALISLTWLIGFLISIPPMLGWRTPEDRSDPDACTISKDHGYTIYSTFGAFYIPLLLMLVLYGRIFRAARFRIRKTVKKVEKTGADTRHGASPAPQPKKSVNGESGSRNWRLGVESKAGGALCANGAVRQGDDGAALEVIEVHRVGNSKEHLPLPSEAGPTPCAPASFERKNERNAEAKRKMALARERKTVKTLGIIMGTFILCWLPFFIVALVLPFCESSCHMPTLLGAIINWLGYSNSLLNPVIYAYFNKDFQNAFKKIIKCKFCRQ

5-HT1AR Q97^2.65A = molecular target: T2, 5-HT1AR Q97^2.65A (Homo sapiens, UniProt P08908, Q97A); assay: as above; format: binding; conditions: 5-HT1AR Q97A; HEK 293T membranes; read-out: Ki [nM ± SEM]
T2 sequence (P08908 1-422 Q97A): T1 sequence (P08908 1-422) with Q97A

[1] = Metabolic stability with rat liver microsomes; format: in vitro ADME
[2] = In vivo pharmacokinetic studies; conditions: mouse, CSF, ip; male C57BL/6 mice, 10 mg/kg i.p.
5-HT1AR + Gαi1 [3] = molecular target: 5-HT1AR + Gαi1 (Homo sapiens, UniProt P08908)
5-HT1AR + Gαi1 [4] = tested on: 5-HT1AR + Gαi1
α2AR = α2AR (Homo sapiens, UniProt P08913); assay: BRET Gαi1 activation
Chain of α2AR (P08913 whole entry): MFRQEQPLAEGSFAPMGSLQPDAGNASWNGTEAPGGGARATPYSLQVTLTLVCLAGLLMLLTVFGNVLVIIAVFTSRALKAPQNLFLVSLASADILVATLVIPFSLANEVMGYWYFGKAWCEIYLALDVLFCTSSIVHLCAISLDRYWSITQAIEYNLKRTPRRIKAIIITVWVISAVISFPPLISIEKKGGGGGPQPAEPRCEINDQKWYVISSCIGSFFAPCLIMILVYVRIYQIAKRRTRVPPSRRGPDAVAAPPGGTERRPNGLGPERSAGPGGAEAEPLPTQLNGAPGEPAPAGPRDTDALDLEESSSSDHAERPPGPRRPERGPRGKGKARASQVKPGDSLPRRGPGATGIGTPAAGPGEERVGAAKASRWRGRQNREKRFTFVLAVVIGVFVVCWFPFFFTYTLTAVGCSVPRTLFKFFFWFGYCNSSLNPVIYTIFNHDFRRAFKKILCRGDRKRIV

5-HT1DR = 5-HT1DR (Homo sapiens, UniProt P28221); assay: BRET Gαi1 activation
Chain of 5-HT1DR (P28221 whole entry): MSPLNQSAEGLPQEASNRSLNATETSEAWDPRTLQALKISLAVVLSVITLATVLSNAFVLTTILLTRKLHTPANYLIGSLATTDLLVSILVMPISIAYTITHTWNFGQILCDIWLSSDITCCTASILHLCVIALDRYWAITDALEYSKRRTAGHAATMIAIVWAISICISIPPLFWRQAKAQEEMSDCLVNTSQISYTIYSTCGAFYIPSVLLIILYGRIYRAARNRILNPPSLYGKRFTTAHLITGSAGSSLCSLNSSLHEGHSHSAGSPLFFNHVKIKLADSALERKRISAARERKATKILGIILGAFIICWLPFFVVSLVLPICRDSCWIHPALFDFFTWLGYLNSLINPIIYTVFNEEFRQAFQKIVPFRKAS

5-HT1ER = 5-HT1ER (Homo sapiens, UniProt P28566); assay: BRET Gαi1 activation
5-HT1FR = 5-HT1FR (Homo sapiens, UniProt P30939); assay: BRET Gαi1 activation
Chain of 5-HT1FR (P30939 whole entry): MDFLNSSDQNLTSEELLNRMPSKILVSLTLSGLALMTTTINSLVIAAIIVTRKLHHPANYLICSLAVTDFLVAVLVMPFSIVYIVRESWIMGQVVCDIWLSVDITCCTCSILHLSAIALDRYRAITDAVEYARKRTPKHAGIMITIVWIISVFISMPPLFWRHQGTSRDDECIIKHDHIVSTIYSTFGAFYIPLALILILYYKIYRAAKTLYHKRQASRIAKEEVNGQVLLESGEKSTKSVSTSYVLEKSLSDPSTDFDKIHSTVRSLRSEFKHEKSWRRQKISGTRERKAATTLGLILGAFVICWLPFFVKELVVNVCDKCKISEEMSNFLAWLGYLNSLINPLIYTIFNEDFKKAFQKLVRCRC

muscarinic M1 = muscarinic M1 (Homo sapiens, UniProt P11229); assay: Radioligand displacement, [3H]NMS
Chain of muscarinic M1 (P11229 whole entry): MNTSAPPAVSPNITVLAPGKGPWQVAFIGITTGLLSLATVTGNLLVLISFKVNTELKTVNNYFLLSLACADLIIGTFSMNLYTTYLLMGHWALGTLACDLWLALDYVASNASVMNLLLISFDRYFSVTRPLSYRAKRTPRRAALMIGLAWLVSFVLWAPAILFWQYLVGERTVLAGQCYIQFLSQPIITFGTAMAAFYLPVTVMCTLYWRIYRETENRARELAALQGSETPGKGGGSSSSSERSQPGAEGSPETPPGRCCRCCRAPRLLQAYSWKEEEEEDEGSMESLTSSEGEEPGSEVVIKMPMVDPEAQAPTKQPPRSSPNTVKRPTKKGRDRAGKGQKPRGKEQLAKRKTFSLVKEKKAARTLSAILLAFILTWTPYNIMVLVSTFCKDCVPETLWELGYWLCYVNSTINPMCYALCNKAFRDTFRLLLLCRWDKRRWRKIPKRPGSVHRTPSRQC

muscarinic M2 = muscarinic M2 (Homo sapiens, UniProt P08172); assay: Radioligand displacement, [3H]NMS
Chain of muscarinic M2 (P08172 whole entry): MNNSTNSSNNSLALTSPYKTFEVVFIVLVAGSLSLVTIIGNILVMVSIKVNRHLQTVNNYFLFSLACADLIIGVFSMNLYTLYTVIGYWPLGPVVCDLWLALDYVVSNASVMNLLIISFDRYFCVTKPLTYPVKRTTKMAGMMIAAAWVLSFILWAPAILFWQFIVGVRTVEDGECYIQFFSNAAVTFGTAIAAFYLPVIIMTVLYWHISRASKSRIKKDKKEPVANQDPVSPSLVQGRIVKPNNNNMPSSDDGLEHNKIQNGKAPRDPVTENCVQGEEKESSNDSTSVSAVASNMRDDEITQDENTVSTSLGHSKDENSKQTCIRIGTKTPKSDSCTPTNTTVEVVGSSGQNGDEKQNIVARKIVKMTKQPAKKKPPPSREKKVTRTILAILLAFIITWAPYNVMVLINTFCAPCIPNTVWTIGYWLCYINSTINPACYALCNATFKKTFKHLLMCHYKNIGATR

muscarinic M3 = muscarinic M3 (Homo sapiens, UniProt P20309); assay: Radioligand displacement, [3H]NMS
Chain of muscarinic M3 (P20309 whole entry): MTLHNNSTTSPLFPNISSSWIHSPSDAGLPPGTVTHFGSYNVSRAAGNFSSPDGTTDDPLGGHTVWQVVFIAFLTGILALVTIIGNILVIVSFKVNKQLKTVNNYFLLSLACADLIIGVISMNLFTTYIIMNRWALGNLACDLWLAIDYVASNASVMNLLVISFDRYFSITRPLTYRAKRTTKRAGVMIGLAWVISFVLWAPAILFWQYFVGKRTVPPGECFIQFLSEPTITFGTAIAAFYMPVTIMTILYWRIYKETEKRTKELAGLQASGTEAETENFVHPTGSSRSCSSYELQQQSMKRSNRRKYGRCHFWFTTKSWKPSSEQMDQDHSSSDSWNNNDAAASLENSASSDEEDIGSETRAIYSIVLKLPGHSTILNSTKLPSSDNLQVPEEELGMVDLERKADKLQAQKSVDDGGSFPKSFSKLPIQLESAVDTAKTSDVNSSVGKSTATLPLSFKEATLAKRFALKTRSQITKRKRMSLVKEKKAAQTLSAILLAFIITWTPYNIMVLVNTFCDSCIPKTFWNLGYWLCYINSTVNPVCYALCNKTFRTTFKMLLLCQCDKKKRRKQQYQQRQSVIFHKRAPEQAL

adrenergic β1 = adrenergic β1 (Homo sapiens, UniProt P08588); assay: Radioligand displacement, [3H]CGP12177
Chain of adrenergic β1 (P08588 whole entry): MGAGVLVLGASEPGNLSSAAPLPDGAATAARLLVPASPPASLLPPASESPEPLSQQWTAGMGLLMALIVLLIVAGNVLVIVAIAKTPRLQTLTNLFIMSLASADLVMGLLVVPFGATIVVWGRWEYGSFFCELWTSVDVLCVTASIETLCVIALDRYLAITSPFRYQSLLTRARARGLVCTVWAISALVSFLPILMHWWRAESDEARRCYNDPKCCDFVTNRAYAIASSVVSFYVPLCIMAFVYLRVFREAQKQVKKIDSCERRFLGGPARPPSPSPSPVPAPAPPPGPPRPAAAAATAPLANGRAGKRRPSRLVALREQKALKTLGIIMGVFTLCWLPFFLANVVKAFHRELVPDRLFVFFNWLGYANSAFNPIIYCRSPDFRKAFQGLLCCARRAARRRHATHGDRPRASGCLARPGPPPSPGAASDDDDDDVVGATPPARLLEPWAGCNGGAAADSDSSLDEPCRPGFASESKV

neurotensin NTS2 = neurotensin NTS2 (Homo sapiens, UniProt O95665); assay: Radioligand displacement, [3H]NT(8-13)
Chain of neurotensin NTS2 (O95665 whole entry): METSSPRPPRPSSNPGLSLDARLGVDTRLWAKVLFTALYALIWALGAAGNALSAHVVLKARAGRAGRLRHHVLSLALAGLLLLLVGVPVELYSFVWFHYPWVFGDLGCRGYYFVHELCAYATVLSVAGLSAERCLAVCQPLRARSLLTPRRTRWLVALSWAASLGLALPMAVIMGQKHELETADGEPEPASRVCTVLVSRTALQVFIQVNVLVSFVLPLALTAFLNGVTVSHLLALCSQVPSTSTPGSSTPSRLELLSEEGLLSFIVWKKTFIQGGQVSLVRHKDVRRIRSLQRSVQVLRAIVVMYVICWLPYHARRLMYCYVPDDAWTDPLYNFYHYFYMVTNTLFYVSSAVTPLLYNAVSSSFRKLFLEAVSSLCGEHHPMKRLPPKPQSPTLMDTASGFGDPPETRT

opioid µOR = opioid µOR (Homo sapiens, UniProt P35372); assay: Radioligand displacement, [3H]diprenorphine
Chain of opioid µOR (P35372 whole entry): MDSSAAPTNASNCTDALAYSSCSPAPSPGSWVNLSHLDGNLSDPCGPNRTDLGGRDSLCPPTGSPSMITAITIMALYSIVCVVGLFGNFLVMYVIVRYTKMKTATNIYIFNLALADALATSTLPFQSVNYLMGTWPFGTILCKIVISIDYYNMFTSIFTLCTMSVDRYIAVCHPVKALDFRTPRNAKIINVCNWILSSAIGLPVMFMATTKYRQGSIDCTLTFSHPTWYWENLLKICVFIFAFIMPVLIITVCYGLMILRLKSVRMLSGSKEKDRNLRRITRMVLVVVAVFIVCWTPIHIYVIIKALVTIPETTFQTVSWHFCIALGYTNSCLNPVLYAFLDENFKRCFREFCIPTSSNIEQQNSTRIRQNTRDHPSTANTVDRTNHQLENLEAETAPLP

opioid δOR = opioid δOR (Homo sapiens, UniProt P41143); assay: Radioligand displacement, [3H]diprenorphine
Chain of opioid δOR (P41143 whole entry): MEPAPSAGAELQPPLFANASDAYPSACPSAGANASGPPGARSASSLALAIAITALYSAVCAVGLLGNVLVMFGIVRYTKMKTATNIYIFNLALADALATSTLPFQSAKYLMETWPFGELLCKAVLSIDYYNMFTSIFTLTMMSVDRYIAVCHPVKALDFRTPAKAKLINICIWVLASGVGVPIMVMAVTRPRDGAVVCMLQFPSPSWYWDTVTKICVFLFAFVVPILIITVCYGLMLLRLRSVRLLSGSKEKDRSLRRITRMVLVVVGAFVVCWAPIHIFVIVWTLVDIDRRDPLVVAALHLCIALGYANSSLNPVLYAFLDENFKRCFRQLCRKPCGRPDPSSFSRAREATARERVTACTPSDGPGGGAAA

opioid κOR = opioid κOR (Homo sapiens, UniProt P41145); assay: Radioligand displacement, [3H]diprenorphine
Chain of opioid κOR (P41145 whole entry): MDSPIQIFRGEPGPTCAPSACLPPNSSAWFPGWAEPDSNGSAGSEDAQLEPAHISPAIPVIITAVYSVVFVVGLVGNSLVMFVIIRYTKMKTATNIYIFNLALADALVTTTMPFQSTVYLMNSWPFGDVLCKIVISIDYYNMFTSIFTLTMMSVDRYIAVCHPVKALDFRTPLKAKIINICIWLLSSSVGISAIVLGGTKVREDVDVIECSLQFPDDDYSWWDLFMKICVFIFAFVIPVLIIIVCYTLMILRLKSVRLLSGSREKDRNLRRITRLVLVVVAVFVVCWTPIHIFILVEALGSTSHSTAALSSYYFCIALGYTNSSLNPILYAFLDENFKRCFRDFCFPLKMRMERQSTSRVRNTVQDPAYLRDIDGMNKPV

5-HT1AR [5] = molecular target: T3, 5-HT1AR (Homo sapiens, UniProt P08908); format: cell-based; parameters: host or cells: HEK293T, HEK293A, HEK293AΔGs, HEK293AΔGi/o, HEK293AΔARRB1/B2; conditions: HEK293AΔGi/o, GloSensor
T3 sequence (P08908 1-422): T1 sequence (P08908 1-422)

5-HT1AR [6] = molecular target: T3, 5-HT1AR; assay: IP-One accumulation with hybrid Gαqi in HEK293T; format: cell-based; parameters: host or cells: HEK293T, HEK293A, HEK293AΔGs, HEK293AΔGi/o, HEK293AΔARRB1/B2
5-HT1AR [7] = molecular target: T3, 5-HT1AR; assay: PathHunter β-arrestin 2 inhibition assay, stimulated with serotonin

COc1ccccc1OCCNCCCOc1ccc2c(c1)NC(=O)CO2 [ST171]
Ki (5-HT1AR wt; 5-HT1A, read-out: pKi (converted)): 0.369 nM | Ki (5-HT1AR wt; 5-HT1AR wt, membranes from transiently transfected HEK 293T cells, read-out: Ki [nM ± SEM]): 0.41 nM | Ki (5-HT1AR Q97^2.65A): 63 nM | intact substrate remaining ([1]; after 1 h incubation): more than 70% | intact substrate remaining ([1]; after 3 h incubation): > 45% | Cmax [2]: ~40 nM | Emax (5-HT1AR + Gαi1 [3]): 68 ± 3% | Emax (5-HT1AR + Gαi1 [4]): 57 to 80% | intrinsic activity (α2AR): devoid of intrinsic activity | EC50 (5-HT1DR): 0.0057 µM | Emax (5-HT1DR): 54% | Emax (5-HT1ER): < 10% | Emax (5-HT1FR): < 10% | Ki (muscarinic M1; Ki [nM ± SD]): 10000 ± 920 nM | Ki (muscarinic M1; pKi): 10300 nM | Ki (muscarinic M2; Ki [nM ± SD]): 18000 ± 9200 nM | Ki (muscarinic M2; pKi): 16300 nM | Ki (muscarinic M3; Ki [nM ± SD]): 49000 ± 28000 nM | Ki (muscarinic M3; pKi): 41500 nM | Ki (adrenergic β1; Ki [nM ± SD]): 1700 ± 350 nM | Ki (adrenergic β1; pKi): 1630 nM | Ki (neurotensin NTS2; Ki [nM ± SD]): > 50000 nM | Ki (neurotensin NTS2; pKi): > 50100 nM | Ki (opioid µOR; Ki [nM ± SD], µOR): 8600 ± 2100 nM | Ki (opioid µOR; Ki, opioid receptor family): > 5000 nM | Ki (opioid µOR; pKi, µOR): 8430 nM | Ki (opioid δOR; Ki [nM ± SD]): 24000 ± 3500 nM | Ki (opioid δOR; pKi): 23400 nM | Ki (opioid κOR; Ki [nM ± SD]): 6200 ± 850 nM | Ki (opioid κOR; pKi): 6280 nM | IC50 (5-HT1AR [5]): 0.0039 ± 0.0008 µM | Emax (5-HT1AR [6]; HEK-293T, read-out: Emax[Gqi], IP accumulation): 43% | EC50 (5-HT1AR [6]; hybrid Gαqi, HEK293T, read-out: EC50[Gqi], IP accumulation): 0.013 ± 0.0029 µM | IC50 (5-HT1AR [7]): 0.0039 ± 0.0005 µM
